In assay [1] the test system is animal. To be noted: literature; cited from earlier work.
Assay [2] deals with potassium channel. To be noted: literature; cited from earlier work.
The subject of assay [3] is potassium channel. As to the kind of experiment: Potassium channel activating effect (86Rb efflux from rat thoracic aorta). The arrangement: species or system male Wistar rats. The conditions noted are these: 10^-4M, 8 minutes. How it is done:
Male Wistar rats (weighing 250-350 g) were dehematized to death, and thoracic aortae were rapidly isolated. The aorta was opened along the longitudinal axis to prepare a flat sheet. The preparation was loaded with ^86 Rb in the Krebs-Ringer solution which contained ^86 Rb in the concentration of 10 μCi/ml and was gassed with 95% O2 -5% CO2 at 37° C. for 2 hours. The preparation was then transferred to a Krebs-Ringer solution not containing ^86 Rb, and washed to remove excess radioactivity for 18 minutes by refreshing the solution every 2 minutes. Finally the preparation was placed into a Krebs-Ringer solution containing each compound (10^-4M) for 8 minutes.
The amount of ^86 Rb efflux from the preparation in each period was determined with a γ-counter.
The increment in efflux rate during the application of the compound was expressed as percent of the efflux before the application of the compound.

Assay [4] has as its system isolated rat aortae. As to the kind of experiment: Vasorelaxing effect on the isolated rat aortae (40 mM KCl contraction). Set-up: species or system male Wistar rats. The conditions noted are these: inhibition of 40 mM KCl-induced contraction, isolated rat aorta. How it is done: Vasorelaxing effect on the isolated rat aortae
The compounds of the present invention were tested for their physiological activities by measuring the tension of isolated rat aortae isometrically.
Thoracic aortae obtained from male Wistar rats (weighing 250-350 g) were cut into ring segments about 3 mm long. The ring preparation was placed in an organ bath filled with 10 ml of Krebs-Ringer solution that was maintained at 37° C. and gassed with 95% O2 -5% CO2.
The preparation in the organ bath was allowed to equilibrate under resting tension of 1 g. After equilibration period, the solution in the organ bath was replaced with an isotonic solution containing 40 mM KCl to contract the preparation.
After the contraction induced by KCl had reached plateau, the concentration-response relationship for the test compound was determined by means of cumulative addition.
The relaxation response of the test compounds was expressed as the percent inhibition of the contraction induced by KCl, and the IC50 value, which is a concentration required for inhibiting the contraction induced by KCl to an extent of 50%, was calculated by the Probit method from the concentration-response curve.

Assay [5] has as its system male ddY mice. As to the kind of experiment: Effect on hypoxia (survival time). The class given is in vivo. To be noted: oral, 96% N2 -4% O2, mean ± S.E.M. As to the method: Effect of the compound of the present invention on hypoxia
The effect of the compound of the present invention [test compound: N-cyano-N'-(2-nitroxyethyl)-3-pyridinecarboximidamide (compound (13))] on hypoxia was examined in male ddY mice (4 week old). Mice were exposed to a gas mixture of 96% N2 -4% O2 that was streamed in a flow rate of 5 l/min.
The time from the onset of the gas stream till the stop of respiration [survival time (sec)] was measured.
The test compound was orally administered in the dosage form of a 2% suspension in gum arabic 30 minutes before the onset of the gas streaming. The control group was administered a gum arabic suspension only.

As for `CC1(C)Oc2ccc(C#N)cc2[C@@H](N2CCCC2=O)[C@@H]1O` (relative stereo) [chromakalim], the “effects in animal experiments” value in assay [1] is “vasodilating effect, antihypertensive effect, coronary blood flow increasing effect, cerebral vasodilative effect and bronchodilatative effect”. Further, the “potassium channel activating effect” value in assay [2] is recorded as “potassium channel activating effect”. `N#CNC(=NCc1ccccc1)c1cccnc1` [(17), N-cyano-N'-benzyl-3-pyridinecarboximidamide]: in assay [3], the “Increment of Efflux (86Rb)” value was 135.41%. For the compound `N#CNC(=NCCc1ccccc1)c1cccnc1` [(27), N-cyano-N'-(2-phenylethyl)-3-pyridinecarboximidamide], the “Increment of Efflux (86Rb)” value in assay [3] came out at 206.61%. With `COc1ccc(NC(=NC#N)c2cccnc2)c(OC)n1` [(40), N-cyano-N'-3-(2,6-dimethoxypyridine)-3-pyridinecarboximidamide], it took 10 µM to reach half-maximal inhibition in assay [4] (IC50). In other words, the double-digit micromolar range. As for `N#CNC(=NCCO[N+](=O)[O-])c1ccncc1` [(41), N-cyano-N'-(2-nitroxyethyl)-4-pyridinecarboximidamide], in assay [3], the “Increment of Efflux (86Rb)” value was 126.88%. As to `N#CNC(=NCCO[N+](=O)[O-])c1cccnc1` [Compound (13), N-cyano-N'-(2-nitroxyethyl)-3-pyridinecarboximidamide], the “Survival Time” value in assay [5] (0.3 mg/kg) amounted to 130.27 ± 9.32 s; in assay [5] (1.0 mg/kg), 201.00 ± 13.40 s; in assay [5] (3.0 mg/kg), 523.15 ± 48.57 s. The “Increment of Efflux (86Rb)” value in assay [3] worked out at 213.53%.

As to `O=C(NCCO[N+](=O)[O-])c1cccnc1` [Nicorandil, nicorandil], in assay [1], the “effects in animal experiments” value was “vasodilating effect, antihypertensive effect, coronary blood flow increasing effect, cerebral vasodilative effect and bronchodilatative effect”. In assay [2], the “potassium channel activating effect” value is recorded as “potassium channel activating effect”. As to `CC(N/C(=N\C#N)Nc1ccncc1)C(C)(C)C` (centres unmarked) [pinacidil], the “effects in animal experiments” value in assay [1] is “vasodilating effect, antihypertensive effect, coronary blood flow increasing effect, cerebral vasodilative effect and bronchodilatative effect”. In addition, the “potassium channel activating effect” value in assay [2] was “potassium channel activating effect”.

These data come from patent US5223508A, “Pyridyl carboximidamide compounds useful in treating blood pressure” (Kirin Beer Kabushiki Kaisha, priority 1992, dated 1993).
